Columns and labels:
Format in all cases: in vivo
Ceutorhynchus napi = assay: Example 26-A: oilseed rape against Ceutorhynchus napi; conditions: 55 d after treatment, larvae, Deltamethrin (25 EC) 5, (I-4) (+ 0.2% rapeseed oil methyl ester) 72, Thiacloprid (OD 240) 72, Lambda-cyhalothrin 5 g a.s./ha
Experimental: Plots approx. 25 m^2 in size which are planted with oilseed rape cv. “Artus” are treated, in four replications, against Ceutorhynchus napi. The application is carried out with a motor-operated knapsack sprayer. Here, the active substance Example (I-4), in a tank mix with 0.2% a.s. rapeseed oil methyl ester (500 EW) and the commercial standards Deltamethrin (25 EC), lambda-cyhalothrin (S100) and Thiacloprid (OD 240), is tested at the specified application rates. The water application rate is 250 l/ha.
The test is evaluated 55 days after the treatment by scoring the destruction rate of the larvae on the plants.

[1] = tested on: Frankliniella occidentalis; assay: Example 2: bell peppers against Frankliniella occidentalis; conditions: Acrinathrin 60, (I-9) 54, (I-4) 60 g a.s./ha, (I-9)/(I-4) 240 SC + 0.1% rapeseed oil methyl ester
Experimental: Plots 10 m^2 in size which are planted with bell peppers cv. “Zingaro” are treated, in three replications, against Frankliniella occidentalis. The application is effected with a knapsack sprayer which is operated with pressurized air. Here, the active substances Example (I-9) (240 SC) and Example (I-4) (240 SC), in the form of a tank mix together with 0.1% a.s. rapeseed oil methyl ester (500 EW) and the commercial standard acrinathrin (075 EW), are applied at the specified application rates. Two applications are carried out at an interval of 24 days, with a water application rate of 1000 l/ha.
The test is evaluated 17 and 21 days after treatment 1 and 4 days after treatment 2 by scoring the destruction of the animals (nymphs) on the flowers.

Empoasca biguttula = assay: Example 12: cotton against Empoasca biguttula
Experimental: Plots 10 m^2 in size which are planted with cotton are treated, in three replications, against Empoasca biguttula. The application is carried out with a knapsack sprayer operated with pressurized air. Here, the active substance Example (I-4) (240 SC), in a tank mix with 0.2% a.s. rapeseed oil methyl ester (500 EW), is tested against the commercial standards Imidacloprid (SL 100) and Buprofezin (WP50) at the specified application rates. Two applications are carried out at an interval of 7 days. The water application rate is 750 l/ha.
The test is evaluated 3, 7, 14 and 21 days after the second treatment by counting the live animals. Thereafter, the efficacy is calculated in percent, using the formula of Henderson and Tilton.

Liriomyza sp. = assay: Example 18: beans against Liriomyza sp.; conditions: for Efficacy (% Abbott) 2 d: 2 d after first treatment, 10 leaves, Cyromazine (WP 75) 130, (I-4) (150 OD) 100, Abamectin (EC 018) 14.4 g a.s./ha, three applications, 7-day intervals; for Efficacy (% Abbott) 7 d: 7 d after first treatment; for Efficacy (% Abbott) 7 d / Efficacy (% Abbott) 12 d / Efficacy (% Abbott) 18 d / Efficacy (% Abbott) 20 d / Efficacy (% Abbott) 25 d: Cyromazine 130, (I-4) 100, Abamectin 14.4 g a.s./ha; for Efficacy (% Abbott) 12 d: 12 d after first treatment; for Efficacy (% Abbott) 18 d: 18 d after first treatment; for Efficacy (% Abbott) 20 d: 20 d after first treatment; for Efficacy (% Abbott) 25 d: 25 d after first treatment
Experimental: Plots approx. 10 m^2 in size which are planted with beans cv. “Lago Azul” are treated, in three replications, against Liriomyza sp. Here, the active substance Example (I-4) (150 OD) and the commercial standards Cyromazine (WP 75) and Abamectin (EC 018) are applied at the specified application rates, using a knapsack sprayer which is operated with pressurized gas. The water application rate is 400 and 500 l/ha., respectively. Three applications are carried out at intervals of in each case 7 days.
The destruction rate in percent is determined on in each case 10 leaves. 2, 7, 12, 18, 20 and 25 days after the first treatment, the following results are obtained: […]

Scirtothrips dorsalis = assay: Example 10: tea plants against Scirtothrips dorsalis; conditions: 7 d after treatment, nymphs, Ethiprole (SC10) 0.005, (I-4) (100 OD) 0.01, Imidacloprid (50 WG) 0.005 % a.s.
Experimental: Plots approx. 5 m^2 in size which are planted with tea plants cv. “Yabukita” which are approximately 18 years old are treated, in three replications, against Scirtothrips dorsalis. Here, the active substance Example (I-4) (100 OD) is tested, at the specified application rates, against the commercial standards Ethiprole (SC10 flowable) and Imidacloprid (50 WG). The application is carried out with a sprayer which is operated with pressurized air. The water application rate is 4500 l/ha. The test is evaluated 7 days after the treatment by scoring the destruction rate of the nymphs and the plants.

Ceratitis capitata = assay: Example 20: peach trees against Ceratitis capitata; conditions: animals on fruits
Experimental: Peach trees cv. “Oom Sarel” which are approximately 10 years old are treated, in three replications, against Ceratitis capitata. The application is carried out with a high-pressure sprayer or a knapsack sprayer which is operated with pressurized air. Here, the active substance Example (I-4) (150 OD) and the commercial standard Fenthion (500 EC) are tested at the specified application rates. The water application rate is 2500 l/ha. Three applications are carried out at an interval of 7 and 19 days, respectively.
The test is evaluated 9 and 16 days after treatment 3 by scoring the destruction rate of the animals on the fruits with the aid of the Abbott formula.

Dacus ciliatus = assay: Example 22A: bottle gourds against Dacus ciliatus
Experimental: Plots approx. 10 m^2 in size which are planted with bottle gourds cv. “Waltham” are treated, in three replications, against Dacus ciliatus. The application is carried out with a motor-operated knapsack sprayer. Here, the active substance Example (I-4) (150 OD) and the commercial standard Fenthion (500 EC) are tested at the specified application rates. Three applications are carried out at in each case an interval of 7 days. The water application rate is approx. 500 l/ha.
The test is evaluated 8, 14 and 21 days after treatment 1 by scoring the infestation of the fruits.

[2] = tested on: olive fruit fly (Dacus oleae); assay: Example 22B: laboratory experiment, olives against olive fruit fly; conditions: olives treated three days after oviposition; Imidacloprid (200 SL) 0.01 %, (I-4) (100 OD) 0.02 %, Fenthion (500 EC) 0.05 %; untreated 84.4
Experimental: In a laboratory experiment, 40 olives are treated, in four replications, against the olive fruit fly (Dacus oleae) three days after oviposition. Here, the active substance (I-4) (100 OD) and the commercial standards Fenthion (500 EC) and Imidacloprid (200 SL) are tested at the specified application rates.
The test is evaluated 14 days after oviposition by counting the number of feeding tunnels (larval development completed), while the absence of such feeding tunnels indicates the efficacy against the larvae.

Idioscopus clypealis = assay: Example 14: mango tree against Idioscopus clypealis; conditions: nymphs on infructescences
Experimental: A mango tree which is approximately 14 years old is treated, in three replications, against Idioscopus clypealis. The application is carried out with a high-pressure sprayer. Here, the active substance Example (I-4) (240 SC), in a tank mix with 0.2% a.s. rapeseed oil methyl ester (500 EW) and the commercial standards Imidacloprid (100 SL) and Pymetrozine (WP 25), is tested at the specified application rates. The amount of spray mixture is 10 l/tree. Five treatments are carried out at intervals of 7, 14, 21 and 28 days.
The test is evaluated in each case 7 days after treatments 3 to 5 by scoring the destruction rate of the nymphs on the infructescences.

[3] = tested on: Frankliniella occidentalis; assay: Example 5: aubergines against Frankliniella occidentalis; conditions: mixed populations on leaves
Experimental: Plots 6 m^2 in size which are planted with aubergines cv. “Soraya” are treated, in three replications, against Frankliniella occidentalis. The application is effected with a motor-operated knapsack sprayer. Here, the active substances Example (I-4) (240 SC) and Example (I-9) (240 SC), in a tank mix together with 0.1% a.s. rapeseed oil methyl ester (500 EW) and the commercial standard Spinosad (480 SC), are tested at the specified application rates. The water application rate is 1500 l/ha.
The test is evaluated 25, 32 and 39 days after the treatment by scoring the destruction rate of the mixed populations on the leaves.

[4] = Imidacloprid 0.00025 %, (I-4) 0.0016 %, Pymetrozine 0.002 %

## CC1(C)[C@H](C(=O)O[C@H](C#N)c2cccc(Oc3ccccc3)c2)[C@@H]1/C=C(\Cl)C(F)(F)F (racemic) [Lambda-cyhalothrin, lambda-cyhalothrin]
Ceutorhynchus napi
  Efficacy (% Abbott) 55 d: 89.5 % Abbott

## CC1(C)[C@H](C(=O)O[C@H](C#N)c2cccc(Oc3ccccc3)c2)[C@@H]1/C=C\C(=O)OC(C(F)(F)F)C(F)(F)F [Acrinathrin, acrinathrin]
[1]; 4 d after treatment 2, nymphs on flowers
  Efficacy (% Abbott) 4 d (2): 87 % Abbott
[1]; 17 d after treatment 1, nymphs on flowers
  Efficacy (% Abbott) 17 d (1): 98 % Abbott
[1]; 21 d after treatment 1, nymphs on flowers
  Efficacy (% Abbott) 21 d (1): 91 % Abbott

## CC(C)N1C(=O)N(c2ccccc2)CS/C1=N\C(C)(C)C [Buprofezin]
Empoasca biguttula; 3 d after second treatment, Henderson and Tilton, Imidacloprid (SL 100) 30, (I-4) (240 SC + 0.2% rapeseed oil methyl ester) 24, Buprofezin (WP50) 50 g a.s./ha
  Efficacy (% H + T) 3 d: 96.5 % H + T
Empoasca biguttula; 7 d after second treatment, Imidacloprid 30, (I-4) 24, Buprofezin 50 g a.s./ha
  Efficacy (% H + T) 7 d: 94.7 % H + T
Empoasca biguttula; 14 d after second treatment, Imidacloprid 30, (I-4) 24, Buprofezin 50 g a.s./ha
  Efficacy (% H + T) 14 d: 90.1 % H + T
Empoasca biguttula; 21 d after second treatment, Imidacloprid 30, (I-4) 24, Buprofezin 50 g a.s./ha
  Efficacy (% H + T) 21 d: 67.1 % H + T

## Nc1nc(N)nc(NC2CC2)n1 [Cyromazine]
Liriomyza sp.
  Efficacy (% Abbott) 2 d: 44 % Abbott
  Efficacy (% Abbott) 7 d: 61 % Abbott
  Efficacy (% Abbott) 12 d: 42 % Abbott
  Efficacy (% Abbott) 18 d: 54 % Abbott
  Efficacy (% Abbott) 20 d: 32 % Abbott
  Efficacy (% Abbott) 25 d: 0 % Abbott

## CC[S+]([O-])c1c(C#N)nn(-c2c(Cl)cc(C(F)(F)F)cc2Cl)c1N (stereo not drawn) [Ethiprole]
Scirtothrips dorsalis
  Efficacy (% Abbott) 7 d: 100 % Abbott

## COP(=S)(OC)Oc1ccc(SC)c(C)c1 [Fenthion]
Ceratitis capitata; Fenthion 1700, (I-4) 100 g a.s./ha
  Efficacy (% Abbott) 16 d after treatment 3: 88.9 % Abbott
Ceratitis capitata; Fenthion (500 EC) 1700, (I-4) (150 OD) 100 g a.s./ha
  Efficacy (% Abbott) 9 d after treatment 3: 86.7 % Abbott
Dacus ciliatus; 8 d after treatment 1, infestation of fruits, Fenthion (500 EC) 300, (I-4) (150 OD) 200 g a.s./ha, three applications, 7-day intervals
  Efficacy (% Abbott) 8 d: 59.6 % Abbott
Dacus ciliatus; 14 d after treatment 1, Fenthion 300, (I-4) 200 g a.s./ha
  Efficacy (% Abbott) 14 d: 48.9 % Abbott
Dacus ciliatus; 21 d after treatment 1, Fenthion 300, (I-4) 200 g a.s./ha
  Efficacy (% Abbott) 21 d: 60.3 % Abbott
[2]
  Number of feeding tunnels (%) 14 days after oviposition: 1.9%

## CC1=NNC(=O)N(/N=C/c2cccnc2)C1 [Pymetrozine]
Idioscopus clypealis; [4]
  Efficacy (% Abbott) 7 days after treatment 4: 98.6 % Abbott
  Efficacy (% Abbott) 7 days after treatment 5: 94.8 % Abbott
Idioscopus clypealis; Imidacloprid (100 SL) 0.00025 %, (I-4) (240 SC + 0.2% rapeseed oil methyl ester) 0.0016 %, Pymetrozine (WP 25) 0.002 %
  Efficacy (% Abbott) 7 days after treatment 3: 70.9 % Abbott

## Abamectin
Liriomyza sp.
  Efficacy (% Abbott) 2 d: 36 % Abbott
  Efficacy (% Abbott) 7 d: 80 % Abbott
  Efficacy (% Abbott) 12 d: 52 % Abbott
  Efficacy (% Abbott) 18 d: 70 % Abbott
  Efficacy (% Abbott) 20 d: 43 % Abbott
  Efficacy (% Abbott) 25 d: 60 % Abbott

## Spinosad
[3]; 25 d after treatment, Spinosad (480 SC) 0.012, (I-9) 0.0054, (I-4) 0.012 % a.s., 240 SC + 0.1% rapeseed oil methyl ester
  Efficacy (% Abbott) 25 d: 94.7 % Abbott
[3]; 32 d after treatment, Spinosad 0.012, (I-9) 0.0054, (I-4) 0.012 % a.s.
  Efficacy (% Abbott) 32 d: 89.3 % Abbott
[3]; 39 d after treatment, Spinosad 0.012, (I-9) 0.0054, (I-4) 0.012 % a.s.
  Efficacy (% Abbott) 39 d: 95.3 % Abbott

— patent US20090298903A1, “USE OF TETRAMIC ACID DERIVATIVES FOR INSECT CONTROL” (priority 2006, published 2009)
